Measurements: paper PMC2954222, “The structure of Haemophilus influenzae prephenate dehydrogenase suggests unique features of bifunctional TyrA enzymes” (Acta Crystallographica Section F: Structural Biology and …, 2010)

Molecular target: T1, HinfPDH (prephenate dehydrogenase component of chorismate mutase/prephenate dehydrogenase TyrA) (Haemophilus influenzae, UniProt P43902)
T1 construct: prephenate dehydrogenase domain, residues 81-377 (Met1-Phe80 excluded); N-terminal His tag removed by TEV, leaving Gly; selenomethionine-labelled; expressed in E. coli; dimer
Test: X-ray crystal structure, […] A
Type: binding
Details: ligand acquired during expression in E. coli, not added

T1 sequence (P43902 81-377): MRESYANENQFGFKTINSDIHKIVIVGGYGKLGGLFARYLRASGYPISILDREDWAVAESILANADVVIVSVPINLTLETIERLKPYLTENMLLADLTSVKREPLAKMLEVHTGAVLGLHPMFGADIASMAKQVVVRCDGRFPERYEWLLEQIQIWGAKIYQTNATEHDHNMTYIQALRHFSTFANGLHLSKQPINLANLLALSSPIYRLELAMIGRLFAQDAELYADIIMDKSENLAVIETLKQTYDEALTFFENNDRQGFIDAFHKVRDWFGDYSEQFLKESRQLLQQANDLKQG

N[C@@H](Cc1ccc(O)cc1)C(=O)O [tyrosine] was tested, and the “X-ray crystal structure, 2.0 A” value (ternary complex with NAD+, active site, competitive mode only inferred) was “could be unambiguously assigned to a tyrosine molecule and an NAD^+ cofactor”.
For NC(=O)c1ccc[n+]([C@@H]2O[C@H](COP(=O)(O)OP(=O)(O)OC[C@H]3O[C@@H](n4cnc5c(N)ncnc54)[C@H](O)[C@@H]3O)[C@@H](O)[C@H]2O)c1 [NAD^+], the “X-ray crystal structure, 2.0 A” value (ternary complex with tyrosine, cofactor site) was “One tyrosine and one NAD^+ are bound in each monomer”.
